The subject of series [1] is HeLa cells. Put plainly: Cell cycle analysis by flow cytometry (PI). The following applies: for Effect on HeLa cell cycle: 0.1, 1.0, 5.0 μM, 6, 12, 24, 48 h; for Ratio of cell cycle arrest (of total cells): 0.1 μM, 6, 12, 24 and 48 h. Format: cell-based. The protocol:
The HeLa cell line was used for cell cycle analysis. Progression through the cell cycle was assessed by flow cytometry DNA determination with Propidium Iodide (PI). […] Flow cytometric analysis was performed using a BD accur C6 flow cytometer. Analysis was with Mod FIT software.
(In general: Flow cytometry measures light scatter and fluorescence of single cells or particles in a stream.)

Series [2] in a line: MTT cytotoxicity assay, normal hepatic cell line HL-7702. The following applies: HL-7702 normal hepatic cells, human normal hepatic immortal cell line, drug exposure 48 h, mean ± SD (n = 3), read-out: Cytotoxic activity (IC50) HL-7702. Format: cell-based. Here is the method:
(§1) HeLa, BGC823, A-549, MCF-7 and HT-7702 cell lines were obtained from the ATCC. […] Tumor cells (3500–13,000) were seeded into 96-well microtest plates in 100 μL of culture medium per well, incubated for 48 h in the presence or absence of test compounds (8 different concentrations ranging from 100 to 0.01 μg/mL). For quantitative estimation of cytotoxicity, the (MTT) method was used, essentially performed as described previously. Briefly, cells were washed twice with PBS, fixed for 15 min in 1% glutaraldehyde solution, rinsed twice in PBS, and stained in 0.5% MTT solution for 4 h at 37 °C. […] The initial seeding densities varied among the cell lines to ensure a final absorbance reading in control (untreated) cultures within the range of 0.6–0.8 A492 units. Drug exposure was carried out for 2 days, and the IC50 value, i.e., the drug concentration that decreased the absorbance by 50%, was extrapolated from dose-response data. Each test was performed in triplicate, and the absorbance readings between the triplicates varied by no more than 10%.
In general terms: Formazan colour is commonly taken as a measure of viable cells.

Another series concerns HeLa. Put plainly: MTT cytotoxicity assay, HeLa. The note with it: drug exposure 48 h, mean ± SD (n = 3), read-out: Cytotoxic activity (IC50) HeLa. Format: cell-based. Here is the method:
as §1

For series [3], the system named is HeLa cells. Put plainly: Annexin V-FITC/PI apoptosis assay. The note with it: 0.1 μM, 6, 12, 24 and 48 h.
Procedure: The HeLa cell line was used for cell apoptosis. Cells (20000 per mL) were incubated with several concentrations of the compounds or drugs for 6–48 h, and incubated in DMEM medium supplemented with 12% fetal calf serum (FCS), 2 mM L -glutamine, and 100 mg/L penicillin G and 100 mg/L streptomycin at 37 °C and 5% CO2. The cells were washed with PBS twice, centrifuged at 206 g for 5 min, and 5–10[5] cells were collected. Binding buffer suspension (500 μL) was added to the cells, and then 5 μL of the FITC-Annexin V mix was added. Next, 10 μL of the PI mix was added, and the suspension was mixed and kept at room temperature for 30 min in the dark. Analysis was with a BD accur C6 flow cytometer.
A further series has as its system MCF-7. Nature of the series: MTT cytotoxicity assay, MCF-7. Format: cell-based. The following applies: Homo sapiens, MCF7, drug exposure 48 h, mean ± SD (n = 3), read-out: Cytotoxic activity (IC50) MCF-7. Here is the method:
as §1

The subject of the next series is A549. Nature of the series: MTT cytotoxicity assay, A549. Format: cell-based. The following applies: Homo sapiens, A549, drug exposure 48 h, mean ± SD (n = 3), read-out: Cytotoxic activity (IC50) A549. Here is the method: as §1
Another series has as its system BGC-823. Nature of the series: MTT cytotoxicity assay, BGC-823. The series is classed as cell-based. The following applies: Homo sapiens, BGC-823, drug exposure 48 h, mean ± SD (n = 3), read-out: Cytotoxic activity (IC50) BGC-823. The protocol: as §1
Series [4] has as its system BimEL, ATR, caspase 3, caspase 8, caspase 9, PARP in HeLa cells. Put plainly: Western blot analysis of apoptosis proteins. The series is classed as cell-based. The note with it: 5 μM, 24 h treatment, untreated control 0%, etoposide-induced activation 100%. The protocol: For electrophoresis, the proteins were separated by sodium dodecyl sulfate–polyacrylamide gel electro-phoresis (SDS–PAGE). The proteins were then transferred to a nitrocellulose membrane, which was blocked with 5% skimmed milk in phosphate buffered saline Tween-20 (PBST). A specific primary antibody was added to bind the target proteins for either 1 h at room temperature or overnight at 4 °C. A horseradish peroxidase (HRP) conjugated secondary antibody was added to the membrane after the primary antibody was washed off. All signals were detected after the HRP was activated by enhanced chemiluminescence. The band intensities of Western results were quantitated with the Image Quant program (Molecular Dynamics Inc.), analyzed and graphed. The untreated controls and the etoposideinduced activation of signaling molecules were taken as 0% and 100%, respectively. Statistic analysis was performed with the uni-polar, paired Student t-test. Data were considered significant when P value was less than 0.05.
For orientation: A western blot detects proteins with antibodies after separation by electrophoresis.

Series [5] has as its system microtubules in HeLa cells. Put plainly: Immunofluorescence of cellular microtubules. The note with it: 12 and 24 h, compared with negative control 0.1% DMSO. Format: cell-based. The protocol: Cells (20000 per mL) were plated a onto 6-well tissue culture plates containing 12 mm round coverslips, cultured overnight, and then treated with different drugs at […] concentrations or drug vehicle (0.1% DMSO) for 12 h and 24 h. Attached cells were permeabilized. Cytoskeletons were incubated with α-tubulin, washed twice, and incubated with FITC goat anti-mouse immunoglobulins. The coverslips were washed, and 1 μg/mL DAPI to stain chromatin was added. The mixture was incubated for 30 min. After the samples were washed, they were examined and photographed using an Olympus epifluorescence microscope. The images were recorded with a Perkin Elmer camera.

Molecules are shown by their SMILES. Read-outs that look alike come from different tables or passages of the source.

In the case of `COc1ccc(N[C@@H]2c3cc4c(cc3[C@@H](c3cc(OC)c(O)c(OC)c3)[C@H]3C(=O)OC[C@@H]32)OCO4)cc1` [Compound 12′], the “Effect on HeLa cell cycle” value in the series with HeLa cells [1] is “arrested at the G2/M phase”. Further, in the series on HeLa cells [1] (HeLa), the “Ratio of cell cycle arrest (of total cells)” value (from here on “Ratio of cell cycle arrest”) is given as “less than 10%”. Further, in [2], the IC50 at 48 h came out at 28.6 ± 2.35 µM. Besides, the IC50 in the series with HeLa (Homo sapiens, HeLa, 48 h) came to 24.46 ± 0.16 µM; in the series with MCF-7, 18.8 ± 0.24 µM; with A549 it was 22.3 ± 1.21 µM; in the series on BGC-823, 36 ± 3.21 µM. In addition, the “Ratio of apoptotic Hela cells (of total cells)” value (shortened to “Ratio of apoptotic Hela cells”) in the series with HeLa cells [3] is listed as “less than 15%”.
Take `COc1ccc(Cl)cc1N[C@@H]1c2cc3c(cc2[C@@H](c2cc(OC)c(OC)c(OC)c2)[C@H]2C(=O)OC[C@@H]21)OCO3` [Compound 15]: the IC50 at 48 h in [2] came to 19.3 ± 1.34 µM. In addition, the half-inhibitory concentration (IC50) in the series with HeLa (Homo sapiens, HeLa, 48 h) stood at 2.64 ± 0.04 µM; with MCF-7, 2.24 ± 0.14 µM; with A549, 1.71 ± 0.26 µM; with BGC-823 it was 3.86 ± 0.29 µM.
The corresponding values for `COc1ccc(Cl)cc1N[C@@H]1c2cc3c(cc2[C@@H](c2cc(OC)c(O)c(OC)c2)[C@H]2C(=O)OC[C@@H]21)OCO3` [Compound 15′] are 67.6 ± 4.32 µM, 5.89 ± 0.48 µM, 2.16 ± 0.37 µM, 29.7 ± 1.67 µM and 27.1 ± 1.17 µM.
`COc1ccc(F)cc1N[C@@H]1c2cc3c(cc2[C@@H](c2cc(OC)c(OC)c(OC)c2)[C@H]2C(=O)OC[C@@H]21)OCO3` [Compound 16]: in series [2], the IC50 at 48 h is 27.7 ± 0.77 µM. For the same molecule, the IC50 was 1.46 ± 0.19 µM with HeLa (Homo sapiens, HeLa, 48 h); 1.92 ± 0.23 µM in the series with MCF-7; 1.43 ± 0.09 µM with A549; 1.37 ± 0.17 µM in the series on BGC-823.
On the same counts, the results for `COc1ccc(F)cc1N[C@@H]1c2cc3c(cc2[C@@H](c2cc(OC)c(O)c(OC)c2)[C@H]2C(=O)OC[C@@H]21)OCO3` [Compound 16′] are 24.3 ± 0.69 µM, 1.72 ± 0.3 µM, 1.53 ± 0.07 µM, 3.17 ± 0.49 µM and 1.32 ± 0.16 µM.
For `COc1ccc(N[C@@H]2c3cc4c(cc3[C@@H](c3cc(OC)c(OC)c(OC)c3)[C@H]3C(=O)OC[C@@H]32)OCO4)cc1Br` [Compound 17, 4β-NH-(3-bromide-4-methoxyaniline)-4-deoxy-podophyllotoxin], in [4], the “Extent of compound-induced BimEL” value was found to be 15%, the “Extent of compound-induced PARP” value is listed as 27%, the “Extent of compound-induced caspase 3” value was 37% and the “Extent of compound-induced caspase 9” value is on record as 0%. For the same molecule, the “Effect on HeLa cell cycle” value in the series with HeLa cells [1] is “arrested at the G2/M phase”. Moreover, the “Ratio of cell cycle arrest” value in the series with HeLa cells [1] (HeLa) is reported as “less than 10%”. Also, the “Total cell cycle arrest percentage (right peak of histogram)” value with HeLa cells [1] (HeLa, 5.0 μM, 48 h) amounted to 86.5%. Further, in series [2], the IC50 at 48 h is 62.4 ± 1.96 µM. For the same molecule, the “Cellular depolymerization of microtubules” value in series [5] is on record as “able to cause cellular depolymerization of microtubules”. Further, the “Ratio of apoptotic Hela cells” value with HeLa cells [3] is listed as “less than 15%”. Further, the IC50 in the series on MCF-7 was found to be 10.1 ± 0.18 µM. The IC50 in the series on A549 worked out at 9.08 ± 0.26 µM. Further, the IC50 with BGC-823 amounted to 7.91 ± 0.59 µM.
Regarding `COc1ccc(N[C@@H]2c3cc4c(cc3[C@@H](c3cc(OC)c(O)c(OC)c3)[C@H]3C(=O)OC[C@@H]32)OCO4)cc1Cl` [Compound 18′, 4β-NH-(3-chloride-4-methoxyaniline)-4-deoxy-4′-demethylepipodophyllotoxin], in series [4], the “Extent of compound-induced ATR” value was 46%, the “Extent of compound-induced PARP” value is reported as 54%, the “Extent of compound-induced caspase 3” value is recorded as 69% and the “Extent of compound-induced caspase 9” value was 35%. In addition, the “Effect on HeLa cell cycle” value in the series with HeLa cells [1] is on record as “arrested at the G2/M phase”. For the same molecule, the “Ratio of cell cycle arrest” value with HeLa cells [1] (HeLa) was “less than 10%”. Moreover, the 50% inhibitory concentration (IC50) at 48 h in series [2] came out at 127.4 ± 0.46 µM. Also, the IC50 with HeLa (Homo sapiens, HeLa, 48 h) was determined as 1.97 ± 0.16 µM. Also, the “Ratio of apoptotic Hela cells” value with HeLa cells [3] is listed as “less than 15%”. For the same molecule, the IC50 in the series with MCF-7 worked out at 3.18 ± 0.51 µM. In the series on A549, the IC50 turned out to be 3.04 ± 0.23 µM. Also, the half-maximal inhibitory concentration (IC50) with BGC-823 came out at 1.77 ± 0.23 µM.
For the molecule `COc1ccc(N[C@@H]2c3cc4c(cc3[C@@H](c3cc(OC)c(O)c(OC)c3)[C@H]3C(=O)OC[C@@H]32)OCO4)cc1F` [Compound 19′, 4β-NH-(3-fluoro-4-methoxyaniline)-4-deoxy-4′-demethylepipodophyllotoxin], the “Effect on HeLa cell cycle” value in the series on HeLa cells [1] is listed as “arrested at the G2/M phase”. In addition, in the series with HeLa cells [1] (HeLa), the “Ratio of cell cycle arrest” value is “less than 10%”. Further, the “Percentage of cell cycle arrest (right peak of histogram)” value in the series on HeLa cells [1] (HeLa, 5.0 μM, 12 h) stood at 84.9%. Moreover, the half-maximal inhibitory concentration (IC50) at 48 h in series [2] was determined as 188 ± 7.33 µM. Moreover, the IC50 with HeLa (Homo sapiens, HeLa, 48 h) turned out to be 0.56 ± 0.12 µM; in the series with MCF-7 it was 1.32 ± 0.24 µM; in the series with A549, 1.2 ± 0.25 µM; in the series with BGC-823, 0.4 ± 0.07 µM. Also, the “Ratio of apoptotic Hela cells” value with HeLa cells [3] is on record as “less than 15%”.
Regarding `COc1cc([C@@H]2c3cc4c(cc3[C@@H](O[C@@H]3O[C@@H]5CO[C@@H](C)O[C@H]5[C@H](O)[C@H]3O)[C@H]3COC(=O)[C@H]23)OCO4)cc(OC)c1O` [Etoposide, reference compound], the 50% inhibitory concentration (IC50) at 48 h in series [2] stood at 24.6 ± 3.82 µM. For the same molecule, the IC50 with HeLa (Homo sapiens, HeLa, 48 h) was determined as 59.4 ± 2.45 µM; in the series with HeLa, 59.4 ± 2.45 µM; in the series with MCF-7, 25.3 ± 1.93 µM; in the series on A549, 20.1 ± 1.95 µM; with BGC-823, 25.5 ± 1.42 µM.

As a reminder, the IC50 is the concentration that inhibits the measured activity by half.

(Values after article PMC4660440 (Scientific Reports, 2015).)
